In patent publication US11236055B2 (Venenum Biodesign, LLC, priority 2016, dated 2022):

Assays:
human TGR5 receptor = biological target: T1, human TGR5 receptor (Homo sapiens, UniProt Q8TDU6); assay: Human TGR5 cAMP production assay; assay type: cell-based; conditions: human TGR5, luminescent cAMP assay; coded A-D; read-out: Human TGR5 Lum. cAMP Activity (EC50)
T1 construct: host or cells: CHO-K1 (hTGR5-CHO cells)
T1 sequence (Q8TDU6 1-330): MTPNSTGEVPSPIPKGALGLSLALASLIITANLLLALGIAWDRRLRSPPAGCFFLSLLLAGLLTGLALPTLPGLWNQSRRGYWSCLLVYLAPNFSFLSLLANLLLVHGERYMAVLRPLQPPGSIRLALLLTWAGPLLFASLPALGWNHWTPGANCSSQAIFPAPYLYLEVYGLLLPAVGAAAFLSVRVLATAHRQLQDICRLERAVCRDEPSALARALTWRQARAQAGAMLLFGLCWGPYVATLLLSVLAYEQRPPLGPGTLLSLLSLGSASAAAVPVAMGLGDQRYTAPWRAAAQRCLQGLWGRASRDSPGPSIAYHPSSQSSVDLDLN
Method in brief: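 CHO-K1 cells stably expressing human TGR5, with IBMX and cAMP antibody, were exposed to half-log serially diluted compound for 1 h at room temperature. cAMP measured by enzyme-fragment complementation luminescence (XS+ kit) after overnight incubation; EC50 values reported.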

mouse TGR5 receptor = biological target: T2, mouse TGR5 receptor (Mus musculus, UniProt Q80SS6); assay: Mouse TGR5 cAMP production assay (luminescent, DiscoveRx cAMP XS+); assay type: cell-based; conditions: HEK293-EBNA cells overexpressing mouse TGR5, luminescent cAMP XS+; coded A-D; read-out: Mouse TGR5 Lum. cAMP Activity (EC50)
T2 construct: expressed in transfected cells; host or cells: HEK293-EBNA (293 c18, ATCC CRL10852), Hygromycin B selection
T2 sequence (Q80SS6 1-329): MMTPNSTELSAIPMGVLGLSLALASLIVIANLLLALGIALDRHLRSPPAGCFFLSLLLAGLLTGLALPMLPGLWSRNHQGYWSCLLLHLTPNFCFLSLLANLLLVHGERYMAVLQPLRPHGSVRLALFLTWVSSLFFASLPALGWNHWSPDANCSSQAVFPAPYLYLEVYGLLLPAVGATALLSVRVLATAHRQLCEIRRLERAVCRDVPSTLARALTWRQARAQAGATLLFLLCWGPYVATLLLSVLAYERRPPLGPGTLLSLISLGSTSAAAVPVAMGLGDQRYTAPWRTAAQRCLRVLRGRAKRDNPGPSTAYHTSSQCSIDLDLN
Source text: Mouse TGR5 cAMP Production Assay
We evaluated compounds of the present invention for their ability to induce cAMP production in HEK-EBNA cells overexpressing the mouse TGR5 receptor. Human embryonic kidney cells (HEK293-EBNA) stably expressing mouse TGR5 receptor were established using the following procedure. Specifically, a commercially-obtained gene encoding mouse TGR5 (accession number BC116914) from Thermo Scientific (Waltham, Mass.) was cloned into an episomal expression vector. The resulting expression plasmid was then transfected into 293 c18 (ATCC® CRL10852™) cells, which express the Epstein-Barr virus nuclear antigen EBNA1 and can support the replication of episomal vectors. Selection for the plasmid was maintained with Hygromycin B. Cells were cultured and maintained in DMEM (Sigma; cat #6429) supplemented with 10% Fetal Bovine Serum, 1% penicillin/streptomycin, 2 mM L-alanine L-glutamine (GlutaMax), and 250 μg/mL Hygromycin.
Two cAMP production assays were developed.
1. Luminescent cAMP Production Assay
In this first cAMP production assay, the cAMP production was measured using DiscoveRx's cAMP XS+ kit following the manufacturer's recommended protocol.
Briefly, HEK293-EBNA cells stably overexpressing mouse TGR5 were harvested using non-enzymatic cell dissociation buffer (Sigma-Aldrich, St. Louis, Mo.), spun down, then resuspended in serum-free DMEM with 500 μM IBMX at a density of 1.25×10^6 cells/mL. 500 μL of cAMP antibody solution was added to […] of cell suspension and incubated at room temperature for 20 min.
Test compounds were serially diluted (half-log dilutions) in DMSO and then further diluted 1:50 in PBS, 10 mM HEPES buffer. 2 μL of serially diluted compound was added to a 384-well low volume plate (Greiner cat #784075) and centrifuged briefly. 2 μL of the cell/cAMP antibody mixture was then added to each compound-containing well and allowed to incubate at room temperature for one (1) hour. Following incubation, the XS+ kits' ED/Lysis/CL Substrate Working Solution was prepared following the manufacturer's recommended protocol and 4 μL was added to each well of the plate. The plate was then incubated for one (1) hour at room temperature. Following incubation, 4 μL of (Enzyme Acceptor) EA reagent was added to the plate and allowed to incubate overnight at room temperature. Luminescent signal was then detected using the Viewlux instrument (Perkin-Elmer, Waltham, Mass.).
In Table 33, EC50 values for both human and mouse cells were determined according to the TGR5 cAMP assays described above.

SMILES | EC50 (human TGR5 receptor) [nM] | EC50 (mouse TGR5 receptor) [nM]
CC(C)(NS(=O)(=O)c1cccc(C(F)(F)F)c1)c1cccc(-c2ccncc2F)c1 [Compound 1AE] | < 100 | 1000 to 30000
CC(C)(NS(=O)(=O)c1cccc(C(F)(F)F)c1)c1cccc(-c2ccncc2Cl)c1 [Compound 1AF] | 100 to 999 | 100 to 999
CC(C)(NS(=O)(=O)c1cccc(C(F)(F)F)c1)c1cccc(-c2ccnc(Cl)c2)c1 [Compound 1AG] | 100 to 999 | 1000 to 30000
CC(C)(NS(=O)(=O)c1cccc(C(F)(F)F)c1)c1cccc(-c2ccnc(C(F)(F)F)c2)c1 [Compound 1AH] | 1000 to 30000 | > 30000
COc1cnccc1-c1cccc(C(C)(C)NS(=O)(=O)c2cccc(C(F)(F)F)c2)c1 [Compound 1AI] | < 100 | 100 to 999
CC(C)(NS(=O)(=O)c1cccc(C(F)(F)F)c1)c1cccc(-c2ccnc3ccccc23)c1 [Compound 1AJ] | 1000 to 30000 | 1000 to 30000
CC(C)(NS(=O)(=O)c1cccc(C(F)(F)F)c1)c1cccc(-c2ccnc(N)c2)c1 [Compound 1AL] | 100 to 999 | 1000 to 30000
CC(C)(NS(=O)(=O)c1cccc(C(F)(F)F)c1)c1cccc(-c2ccncc2O)c1 [Compound 1AN] | 100 to 999 | 1000 to 30000
Cc1cncc(F)c1-c1cccc(C(C)(C)NS(=O)(=O)c2cccc(C(F)(F)F)c2)c1 [Compound 1AO] | 1000 to 30000 | 1000 to 30000
O=S(=O)(NCc1cc(-c2ccncc2Cl)ccc1F)c1cccc(C(F)(F)F)c1 [Compound 1AV] | 1000 to 30000 | 1000 to 30000
C[C@H](NS(=O)(=O)c1cccc(C(F)(F)F)c1)c1cccc(-c2ccncc2)c1 [Compound 1AW] | 100 to 999 | 1000 to 30000
C[C@H](NS(=O)(=O)c1cccc(C(F)(F)F)c1)c1cccc(-c2ccncc2Cl)c1 [Compound 1AX] | 100 to 999 | 100 to 999
C[C@H](NS(=O)(=O)c1cccc(C(F)(F)F)c1)c1cccc(-c2ccncc2F)c1 [Compound 1AY] | 100 to 999 | 1000 to 30000
COc1cnccc1-c1cccc([C@H](C)NS(=O)(=O)c2cccc(C(F)(F)F)c2)c1 [Compound 1AZ] | < 100 | 1000 to 30000
C[C@@H](NS(=O)(=O)c1cccc(C(F)(F)F)c1)c1cccc(-c2ccncc2)c1 [Compound 1BB] | 100 to 999 | 1000 to 30000
C[C@@H](NS(=O)(=O)c1cccc(C(F)(F)F)c1)c1cccc(-c2ccncc2Cl)c1 [Compound 1BC] | 100 to 999 | 100 to 999
C[C@@H](NS(=O)(=O)c1cccc(C(F)(F)F)c1)c1cccc(-c2ccncc2F)c1 [Compound 1BD] | 100 to 999 | 1000 to 30000
COc1cnccc1-c1cccc([C@@H](C)NS(=O)(=O)c2cccc(C(F)(F)F)c2)c1 [Compound 1BE] | 100 to 999 | 100 to 999
CC(C)(NS(=O)(=O)c1ccccc1C(F)(F)F)c1cccc(-c2ccncc2O)c1 [Compound 1BM] | < 100 | 100 to 999
COc1cnccc1-c1cccc(C2(NS(=O)(=O)c3cccc(C(F)(F)F)c3)CC2)c1 [Compound 1BN] | 100 to 999 | 100 to 999
Cc1ccc(C(C)(C)NS(=O)(=O)c2cccc(C(F)(F)F)c2)cc1-c1ccncc1 [Compound 1BW] | 1000 to 30000 | > 30000
CCC(NS(=O)(=O)c1cccc(C(F)(F)F)c1)c1cccc(-c2ccncc2)c1 (centres unmarked) [Compound 1BZ] | 100 to 999 | 1000 to 30000
Cc1cccc(S(=O)(=O)NCc2cccc(-c3c(C)noc3C)c2)c1 [Compound 2, N-(3-(3,5-dimethylisoxazol-4-yl)benzyl)-3-methylbenzenesulfonamide] | 1000 to 30000 | 1000 to 30000
Cc1noc(C)c1-c1cccc(CNS(=O)(=O)c2cccc(Cl)c2)c1 [Compound 2AA] | 1000 to 30000 | 1000 to 30000
COc1cccc(S(=O)(=O)NCc2cccc(-c3c(C)noc3C)c2)c1 [Compound 2AB] | 1000 to 30000 | 1000 to 30000
Cc1noc(C)c1-c1cccc(CNS(=O)(=O)c2ccccc2C(F)(F)F)c1 [Compound 2AC] | 1000 to 30000 | 1000 to 30000
Cc1noc(C)c1-c1cccc(CNS(=O)(=O)c2cc(C(F)(F)F)ccc2F)c1 [Compound 2AF] | 1000 to 30000 | > 30000

Further lines, results first:

EC50 (human TGR5 receptor) [nM] | EC50 (mouse TGR5 receptor) [nM] | SMILES
100 to 999 | 1000 to 30000 | Cc1cc(-c2cccc(C(C)(C)NS(=O)(=O)c3cccc(C(F)(F)F)c3)c2)ccn1 [Compound 1AK]
100 to 999 | 1000 to 30000 | O=S(=O)(NCc1cccc(-c2ccncc2F)c1)c1cccc(C(F)(F)F)c1 [Compound 1AP]
100 to 999 | 1000 to 30000 | O=S(=O)(NCc1cccc(-c2ccncc2Cl)c1)c1cccc(C(F)(F)F)c1 [Compound 1AQ]
100 to 999 | 1000 to 30000 | O=S(=O)(NCc1cccc(-c2ccncc2)c1)c1cccc(C(F)(F)F)c1 [Compound 1AR]
100 to 999 | 1000 to 30000 | O=S(=O)(NCc1ccc(F)c(-c2ccncc2)c1)c1cccc(C(F)(F)F)c1 [Compound 1AS]
1000 to 30000 | 1000 to 30000 | O=S(=O)(NCc1ccc(F)c(-c2ccncc2Cl)c1)c1cccc(C(F)(F)F)c1 [Compound 1AT]
1000 to 30000 | 1000 to 30000 | O=S(=O)(NCc1cc(-c2ccncc2)ccc1F)c1cccc(C(F)(F)F)c1 [Compound 1AU]
100 to 999 | 100 to 999 | Cc1cnccc1-c1cccc(CNS(=O)(=O)c2cccc(C(F)(F)F)c2)c1 [Compound 1BF]
100 to 999 | 1000 to 30000 | Nc1cnccc1-c1cccc(CNS(=O)(=O)c2cccc(C(F)(F)F)c2)c1 [Compound 1BG]
1000 to 30000 | 1000 to 30000 | O=S(=O)(NCc1cccc(-c2ccncc2C(F)(F)F)c1)c1cccc(C(F)(F)F)c1 [Compound 1BH]
1000 to 30000 | > 30000 | Cc1cc(-c2cccc(CNS(=O)(=O)c3cccc(C(F)(F)F)c3)c2)ncn1 [Compound 1BI]
1000 to 30000 | > 30000 | O=S(=O)(NCc1cccc(-c2cc(C(F)(F)F)ncn2)c1)c1cccc(C(F)(F)F)c1 [Compound 1BJ]
1000 to 30000 | > 30000 | O=S(=O)(NCc1cccc(-c2ccncn2)c1)c1cccc(C(F)(F)F)c1 [Compound 1BK]
1000 to 30000 | 1000 to 30000 | COc1cnccc1-c1cccc(CNS(=O)(=O)c2cccc(C(F)(F)F)c2)n1 [Compound 1BQ]
1000 to 30000 | 1000 to 30000 | COc1cnccc1-c1ccnc(CNS(=O)(=O)c2cccc(C(F)(F)F)c2)c1 [Compound 1BR]
1000 to 30000 | > 30000 | O=S(=O)(NCc1ccc(Cl)c(-c2ccncc2)c1)c1cccc(C(F)(F)F)c1 [Compound 1BU]
1000 to 30000 | > 30000 | O=S(=O)(NCc1cc(Cl)cc(-c2ccncc2)c1)c1cccc(C(F)(F)F)c1 [Compound 1BV]
1000 to 30000 | > 30000 | Cc1noc(C)c1-c1cccc(CNS(=O)(=O)c2ccc(Cl)c(C(F)(F)F)c2)c1 [Compound 2AD]
1000 to 30000 | > 30000 | Cc1noc(C)c1-c1cccc(CNS(=O)(=O)c2ccc(F)c(C(F)(F)F)c2)c1 [Compound 2AE]
